Data from ChEMBL document CHEMBL1201862, “PubChem BioAssay data set” (2004).
Structures can show the parent of a compound that is named as a salt. Values belong to the molecule of their own block, whether it stands above or below them. Active and inactive are the calls of the source.

Key:
Kallikrein-7 = Kallikrein-7 (Homo sapiens, UniProt P49862); assay: Fluorescence Intensity-based biochemical primary high throughput dose response assay to identify activators of kallikrein-7 (K7) zymogen.
[1] = biological target: T1, Corticotropin-releasing factor receptor 2/Corticotropin-releasing factor-binding protein (Homo sapiens, UniProt P24387+Q13324); assay: activators of CRF receptor 2 with binding protein – uHTS hits, confirmation (AID 602473); format: functional; conditions: read-out: EC50_Mean
T1 sequence (Q13324 whole entry): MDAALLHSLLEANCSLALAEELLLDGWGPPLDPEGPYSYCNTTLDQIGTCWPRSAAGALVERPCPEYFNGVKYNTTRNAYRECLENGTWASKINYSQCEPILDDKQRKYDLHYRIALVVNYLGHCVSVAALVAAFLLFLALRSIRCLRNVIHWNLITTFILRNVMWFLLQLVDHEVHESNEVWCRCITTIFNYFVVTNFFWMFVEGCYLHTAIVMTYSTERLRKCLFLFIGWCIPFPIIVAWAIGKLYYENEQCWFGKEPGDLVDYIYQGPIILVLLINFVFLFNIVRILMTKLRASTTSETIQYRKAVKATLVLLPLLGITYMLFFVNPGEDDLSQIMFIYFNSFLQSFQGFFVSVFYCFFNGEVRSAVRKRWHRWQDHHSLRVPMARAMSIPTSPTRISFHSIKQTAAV
T1 sequence (P24387 whole entry): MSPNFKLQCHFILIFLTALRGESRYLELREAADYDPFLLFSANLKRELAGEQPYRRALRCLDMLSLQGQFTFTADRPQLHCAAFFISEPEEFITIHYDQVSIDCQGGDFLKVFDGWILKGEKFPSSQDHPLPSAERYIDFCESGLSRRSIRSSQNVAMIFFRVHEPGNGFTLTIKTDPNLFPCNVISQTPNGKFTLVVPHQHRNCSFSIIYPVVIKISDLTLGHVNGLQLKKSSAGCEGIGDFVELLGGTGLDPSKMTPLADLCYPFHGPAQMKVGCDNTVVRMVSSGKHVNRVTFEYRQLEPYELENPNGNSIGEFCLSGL

[2] = biological target: T1, Corticotropin-releasing factor receptor 2/Corticotropin-releasing factor-binding protein; assay: Dose Response confirmation of uHTS hits for small molecule antagonists of the CRF-binding protein and CRF-R2 receptor complex.; format: functional; conditions: read-out: IC50_Mean
[3] = CRF-BP/CRF-R2 complex antagonists, dose response, cell-based, uHTS hits, 384-well (AID 651639); format: functional, Homo sapiens; conditions: read-out: IC50_Mean
Protein Tat = biological target: T2, Protein Tat (Human immunodeficiency virus type 1 group M subtype B (isolate HXB2)(HIV-1), UniProt P04608); format: functional;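 also: tat binding to TAR RNA read out by fluorescence polarization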
T2 sequence (P04608 whole entry): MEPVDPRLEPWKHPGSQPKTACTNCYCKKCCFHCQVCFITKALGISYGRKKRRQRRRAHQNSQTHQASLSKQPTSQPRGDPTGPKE

[4] = biological target: T3, Hepatocyte nuclear factor 4-alpha (Homo sapiens, UniProt P41235); format: functional, cell-based;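 also: biochemical luminescence-based dose-response counterscreen measuring inhibition of HNF4 dimerization, run alongside a screen for blockers of ABHD5–perilipin-5 interaction; split luciferase complementation of HNF4 fusion proteins in cell lysate measuring dimerization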
T3 sequence (P41235 whole entry): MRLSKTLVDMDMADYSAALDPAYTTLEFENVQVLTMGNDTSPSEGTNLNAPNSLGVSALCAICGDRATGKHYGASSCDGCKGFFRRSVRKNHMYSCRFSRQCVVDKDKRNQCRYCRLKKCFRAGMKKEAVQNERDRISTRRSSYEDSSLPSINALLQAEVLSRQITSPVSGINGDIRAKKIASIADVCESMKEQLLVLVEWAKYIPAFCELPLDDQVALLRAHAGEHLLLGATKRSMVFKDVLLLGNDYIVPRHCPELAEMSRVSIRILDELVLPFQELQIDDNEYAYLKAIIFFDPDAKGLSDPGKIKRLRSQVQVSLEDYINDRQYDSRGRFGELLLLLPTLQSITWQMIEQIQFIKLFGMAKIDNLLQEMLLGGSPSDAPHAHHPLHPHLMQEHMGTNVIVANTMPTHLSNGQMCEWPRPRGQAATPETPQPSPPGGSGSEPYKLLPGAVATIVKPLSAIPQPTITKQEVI

[5] = biological target: T4, Polyadenylate-binding protein 1 (Homo sapiens, UniProt P11940); assay: PABP1 MLLE–PAM2 interaction inhibitors, dose response, miRNA deadenylation inhibitor project, biochemical, fluorescence polarization, Cy5-PAM2 peptide, secondary (AID 602260); format: functional; conditions: read-out: IC50_Mean
[6] = biological target: T4, Polyadenylate-binding protein 1; assay: PABP1 MLLE–PAM2 binding inhibitor potency, dose response, biochemical, fluorescence polarization, FITC-PAM2 peptide (AID 602259); format: functional; conditions: read-out: IC50_Mean
[7] = THP-1 cell cytotoxicity, dose response, cytotoxicity control for Vif-APOBEC3G degradation inhibitor project, THP-1 cells (AID 1117359); format: functional; conditions: Human immunodeficiency virus 1, THP-1
[8] = inhibitors of PGC1a acetylation in cells, dose response, cell-based, cherry-picked samples (AID 720514); format: functional;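 also: potency may reflect raised or lowered acetylation signal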
[9] = biological target: Photoreceptor-specific nuclear receptor (Homo sapiens, UniProt Q9Y5X4); format: functional, cell-based;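 also: CHO-S cells with Gal4-NCOR and VP16-NR2E3 two-hybrid luciferase reporter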
[10] = LGR2 antagonists, dose response, cell-based, HEK293, CRE-luciferase reporter, cherry pick, set 2 (AID 743343); format: functional;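 also: transfected cells were stimulated with diluted bursicon conditioned medium after compound addition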
[11] = HEK293 cell cytotoxicity, dose response, cytotoxicity control, plate reader, cherry-picked samples (AID 743446); format: functional, cell-based
[12] = A549 cell cytotoxicity, dose response, cytotoxicity control, plate reader, cherry-pick, antagonist series (AID 743412); format: functional, cell-based
[13] = growth suppression of PTEN-null colon cells, dose response, cell-based, HCT116 PTEN knockout (AID 1047); format: functional;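 also: HCT116 colon tumor cells with PTEN knocked out; cells exposed to compound for 60 hours before readout; potency for loss of cell viability measured by luminescence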
[14] = MC4R antagonists, dose response, counter-screen for LGR2 antagonist project, cell-based, plate reader, cherry pick (AID 743444); format: functional;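 also: transfected HEK 293 cells stimulated with alpha-MSH peptide; potency of inhibitors of the alpha-MSH evoked signal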
[15] = growth suppression of beta-catenin-knockout colon cells, dose response, cell-based, HCT116, human colon tumor (AID 1045); format: functional;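 also: HCT116 colon tumor cells with beta catenin knocked out; cells exposed to compound for 60 hours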
Cytochrome P450 1A2 = biological target: T5, Cytochrome P450 1A2 (Homo sapiens, UniProt P05177);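 also: PubChem cytochrome P450 panel assay, CYP1A2 panel member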
T5 sequence (P05177 whole entry): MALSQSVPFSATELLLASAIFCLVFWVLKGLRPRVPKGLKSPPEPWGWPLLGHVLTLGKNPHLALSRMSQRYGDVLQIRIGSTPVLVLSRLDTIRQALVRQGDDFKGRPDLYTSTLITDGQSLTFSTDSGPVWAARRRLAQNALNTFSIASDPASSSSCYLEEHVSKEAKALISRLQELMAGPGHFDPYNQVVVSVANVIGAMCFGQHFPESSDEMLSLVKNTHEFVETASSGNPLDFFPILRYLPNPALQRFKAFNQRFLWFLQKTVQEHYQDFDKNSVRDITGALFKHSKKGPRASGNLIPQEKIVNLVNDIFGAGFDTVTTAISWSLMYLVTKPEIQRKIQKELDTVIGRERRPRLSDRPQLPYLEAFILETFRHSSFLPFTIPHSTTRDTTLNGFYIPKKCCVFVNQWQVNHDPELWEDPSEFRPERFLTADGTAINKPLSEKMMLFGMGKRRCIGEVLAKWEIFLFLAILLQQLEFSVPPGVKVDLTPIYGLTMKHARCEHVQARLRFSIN

Sequence of Kallikrein-7 (P49862 whole entry): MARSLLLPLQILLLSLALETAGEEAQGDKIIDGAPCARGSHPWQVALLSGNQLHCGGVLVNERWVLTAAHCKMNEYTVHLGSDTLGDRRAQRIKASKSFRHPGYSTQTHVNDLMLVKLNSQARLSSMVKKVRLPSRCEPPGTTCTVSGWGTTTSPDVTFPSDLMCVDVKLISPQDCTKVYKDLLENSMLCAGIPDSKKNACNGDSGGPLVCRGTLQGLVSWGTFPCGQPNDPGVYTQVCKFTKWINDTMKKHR
T4 sequence (P11940 whole entry): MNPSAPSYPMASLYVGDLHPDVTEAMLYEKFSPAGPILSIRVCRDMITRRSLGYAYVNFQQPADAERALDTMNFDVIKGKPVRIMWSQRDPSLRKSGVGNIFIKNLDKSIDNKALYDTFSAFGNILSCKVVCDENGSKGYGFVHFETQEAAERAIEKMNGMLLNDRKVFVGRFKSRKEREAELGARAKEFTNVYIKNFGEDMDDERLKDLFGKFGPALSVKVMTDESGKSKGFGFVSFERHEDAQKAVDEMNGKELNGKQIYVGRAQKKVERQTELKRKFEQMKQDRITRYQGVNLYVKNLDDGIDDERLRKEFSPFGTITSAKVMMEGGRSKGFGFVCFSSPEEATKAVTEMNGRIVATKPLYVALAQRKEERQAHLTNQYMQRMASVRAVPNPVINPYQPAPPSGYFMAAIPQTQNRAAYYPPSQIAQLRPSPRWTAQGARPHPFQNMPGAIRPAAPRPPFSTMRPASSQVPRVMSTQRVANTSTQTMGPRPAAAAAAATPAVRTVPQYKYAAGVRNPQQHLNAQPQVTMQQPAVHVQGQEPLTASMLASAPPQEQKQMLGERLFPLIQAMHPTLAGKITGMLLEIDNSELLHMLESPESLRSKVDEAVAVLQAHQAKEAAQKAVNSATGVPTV
Sequence of Photoreceptor-specific nuclear receptor (Q9Y5X4 whole entry, the tested form may be a part): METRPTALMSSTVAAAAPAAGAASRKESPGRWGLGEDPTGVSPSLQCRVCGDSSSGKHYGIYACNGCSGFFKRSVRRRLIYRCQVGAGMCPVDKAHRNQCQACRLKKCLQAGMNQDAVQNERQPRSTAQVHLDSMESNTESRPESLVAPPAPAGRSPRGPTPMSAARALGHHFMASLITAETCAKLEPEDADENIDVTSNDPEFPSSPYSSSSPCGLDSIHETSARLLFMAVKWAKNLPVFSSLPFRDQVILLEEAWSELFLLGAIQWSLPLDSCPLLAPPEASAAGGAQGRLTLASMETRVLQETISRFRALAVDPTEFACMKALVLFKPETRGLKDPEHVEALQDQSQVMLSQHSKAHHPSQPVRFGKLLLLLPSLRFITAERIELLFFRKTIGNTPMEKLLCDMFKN

- EC50 (Kallikrein-7): > 69.5 µM (inactive)
Compound: Cc1cc(N2CCCC2)nc2ccc(NC(=S)NCCCOC(C)C)cc12

- EC50 (Kallikrein-7): > 69.5 µM (inactive)
Compound: Cc1cccc(C)c1NC(=O)C(c1ccccc1)N1CC(=O)Nc2ccccc21 (configuration not stated)

- EC50 [1]: > 53 µM (inactive)
- IC50 [2]: 10.3 µM (active)
- IC50 [3]: 14.4 µM (active)
Compound: Cc1ccc(S(=O)(=O)N(CC(=O)Nc2ccccc2C(=O)O)c2ccc(Cl)cc2)cc1

- IC50 (Protein Tat): > 100 µM (active)
Compound: O=C(c1cc2n(n1)C(C(F)(F)F)CC(c1ccco1)N2)N1CCc2ccccc2C1 (configuration not stated)

- IC50 (Protein Tat): > 100 µM (active)
Compound: CC(C)CCN1CCN(Cc2cccn2-c2cccnc2)CC1CCO (configuration not stated)

- IC50 [4]: 0.814 µM (active)
- IC50 [5]: > 66 µM (inactive)
- IC50 [6]: > 66 µM (inactive)
Compound: CCOC1=CC2=C(C(=O)C(Cl)=CC2=O)[C@@H]2CN(S(=O)(=O)c3ccc(C)cc3)[C@@H](c3ccccc3)[C@H]12

Compound: COc1cc(C)c(C2NC(=O)c3ccccc3N2)cc1C (configuration not stated)
- CC50 [7]: 2.86 µM (active)

- IC50 [4]: 3.64 µM (active)
Compound: Cc1cccc(C)c1NC(=O)C(c1ccnc2ccccc12)n1c(=O)c(-c2ccco2)nc2ccccc21 (configuration not stated)

Compound: O=C1C=CCCN1C(=O)/C=C/c1ccccc1Cl
- AC50 [8]: 0.617 µM (active)

Compound: Cc1ccc(C#N)c(SCc2nnc(-c3ccc(Cl)cc3)o2)n1
- IC50 [9]: 1.47 µM (active)
- AC50 [10]: 0.181 µM (active)
- AC50 [11]: > 52 µM (inactive)
- AC50 [12]: 30.9 µM (active)
- EC50 [13]: 8.1 µM (active)
- AC50 [14]: 0.209 µM (active)
- EC50 [15]: 15.7 µM (active)

- IC50 [4]: 10.9 µM (inactive)
- AC50 (Cytochrome P450 1A2): 12.6 µM (inconclusive)
Compound: CCN(CC)CCOCCOC(=O)C1(c2ccccc2)CCCC1 [CARBETAPENTANE CITRATE]
